Key:
IL-8 = IL-8 mRNA expression induced by A2E (quantitative RT-PCR); format: cell-based, pig; conditions: BIO203 20 mM (so in the source); A2E 20 μM; porcine RPE cells; p < 0.001
Procedure: RPE cells were obtained from pig eyes, as previously described. RPE cells were seeded on a 96-well plate at a density of 1.5 × 10^5 cells/cm^2 in DMEM 2% FCS. BIO201, BIO203, or its pure enantiomers were added in increasing concentrations to the culture medium 48 h before illumination. A2E was added to the medium at a final concentration of 30 μM, and 19 h later, blue-light illumination was performed for 50 min using a 96 blue-led device (Durand, St Clair de la Tour, France) emitting at 470 nm (1440 mcd, 8.6 mA). Just before illumination, the culture medium was replaced by a modified DMEM without any photosensitizer and with 2% FCS. Twenty-four hours after blue-light irradiation, all cell nuclei were stained with Hoechst 33342, and nuclei of dead cells with ethidium homodimer 2, fixed with paraformaldehyde (4% in PBS, 10 min) and 9 pictures per well were captured using a fluorescence microscope (Nikon TiE) equipped with a CoolSNAP HQ2 camera and driven by Metamorph Premier On-Line program. Quantification of live cells was performed using Metamorph Premier Off-Line and a homemade program by subtraction of dead cells from all cells. For cytokines mRNA analysis, RPE cells were seeded in 24-well plates and left untreated or treated with A2E or BIO203 alone or A2E plus BIO203. […]

IL-6 = tested on: IL-6; parameters: method as in PMID 34544906; conditions: norbixin at 20 mM (so in the source); cited from earlier work
VEGF = tested on: VEGF; parameters: method as in PMID 34544906; conditions: norbixin at 20 mM (so in the source); cited from earlier work

Structure (SMILES) | change of IL-8 mRNA expression induced by A2E (IL-8) [%] | effect on IL-6 mRNA expression (IL-6) | effect on VEGF mRNA expression (VEGF)
COC1CCCN(C(=O)/C=C/C(C)=C/C=C/C(C)=C/C=C/C=C(C)/C=C/C=C(C)\C=C\C(=O)O)C1 (stereo not drawn) [BIO203] | −86.8 | – | –
CC(=C/C=C/C(C)=C/C=C/C=C(C)/C=C/C=C(C)/C=C/C(=O)O)/C=C/C(=O)O [norbixin, 9′-cis-norbixin] | – | significantly reduced | significantly reduced

From paper PMC10049354, “Anti-Inflammatory Effects and Photo- and Neuro-Protective Properties of BIO203, a New Amide Conjugate of Norbixin, in Development for the Treatment of Age-Related Macular Degeneration (AMD)” (International Journal of Molecular Sciences, 2023)
